Test results: patent US20240207228A1, “A COMBINATION COMPRISING A SPECIFIC HDAC6 INHIBITOR AND AT LEAST ONE CTLA4 CHECKPOINT INHIBITOR” (ITALFARMACO SPA, priority 2021, published 2024)

What was measured:
[1] = tested on: PD-L1; test: PD-L1 expression in mouse immune cells in vivo; settings: ITF3756 50 mg/Kg three times a day
[2] = tested on: mouse colon carcinoma cell line CT26; test: Anti-tumor effect in the CT26 murine model (tumor growth inhibition from tumor nodule volume/weight); format: in vivo; design: key to Statistical significance vs Control group on day 10 / Statistical significance vs Control group on day 12 / Statistical significance vs Control group on day 14 / Statistical significance vs Control group on day 17 / Statistical significance vs Control group on day 19 / Statistical significance vs Control group on day 21 / Statistical significance vs Control group on day 24: n.s.: not significant; *: p < 0.05; **: p < 0.01; settings: for Statistical significance vs Control group on day 10 / Statistical significance vs Control group on day 12 / Statistical significance vs Control group on day 14 / Statistical significance vs Control group on day 17 / Statistical significance vs Control group on day 19 / Statistical significance vs Control group on day 21 / Statistical significance vs Control group on day 24: CT26 tumor growth
Procedure: The anti-tumor efficacy of ITF3756, administered in combination with anti-CTLA4 antibody, has been determined using a murine model based on the use of the mouse colon carcinoma cell line CT26. In this model, the CT26 cells are implanted subcutaneously to syngeneic mice and the efficacy is determined as tumor growth inhibition on the basis of the volume of the tumor nodule.
ITF3756 was synthetized by the Medicinal Chemistry Dept. of Italfarmaco SpA. ITF3756, batch 5, as powder was solubilized in DMSO and stored at −20° C. On each day of administration, the solution was diluted with H2O/PEG 400 1:1 to obtain a final solution of H2O/PEG 400 1:1 in DMSO 0.5% at 2.5 and 5.0 mg/mL.
The solutions were administered orally by using gavage needles for mice, in a volume of 200 μL (final doses 25 and 50 mg/Kg).
ITF3756 administration started when the tumor nodules were palpable (around day 10 from cells inoculation).
Syrian hamster IgG Mab anti-mouse CTLA4 was purchased from BioXell (cat. BE0131, clone 9H10), diluted with PBS at 1, 0.3 and 0.1 mg/mL final concentration and stored at +4° C. Each mouse was treated with 200 μL of the respective solution (final doses 10.0, 3.0 and 1.0 mg/Kg).
Anti-CTLA4 Mab administration started when the tumor nodules were palpable (around day 10 from cells inoculation). Anti-CTLA4 was administered intraperitoneally (ip) once a day on alternate days for a total of 4 treatments, followed by 7 days of wash-out, as reported in table 1. This treatment cycle continued up to the end of the study.
Female 6 weeks old BALB/c mice were purchased from Charles River Italia and maintained with food and water ad libitum, under light-dark cycle of 12 hours.
After 5 days of acclimatization, the mice were submitted to tumor cells injection.
CT26 (murine BALB/c colon carcinoma, CT26.WT ATCC CRL-2638) cells were grown in RPMI 1640 cell culture medium+10% fetal calf serum (FCS).
The cells were detached, during the exponential phase, with trypsin, washed with the culture medium without FCS and suspended at 5×10^6 cells/mL final concentration.
The cells (1×10^6 cells/mouse) were injected s.c. in the inguinal region of the right flank of the mice in a volume of 200 μL.
When the tumor nodule was palpable in at least 80% of the animals, the mice were randomized in the following experimental groups and drugs administration was started.
Body weight was measured on alternate days, starting from the first day of drug administration.
The volume of subcutaneous tumor nodules was determined on alternate days, according to the following formula (Papagiannoros A. et al. in vivo 20:129-136, 2006):
where D=major diameter of the nodule and d=minor diameter of the nodule.
The weight of the tumor nodule was determined by the tumor volume considering a tumor density of 1.05 g/mL (Jensen M. M. et al. BMC Medical Imaging 8(16), 2008).
The animals were euthanized when the tumor weight was equal to the 10% of body weight or the tumor nodules were ulcerated (humane end-points).
The statistical analysis of the drugs effect was carried out by 2-way ANOVA with Dunnett's multiple comparisons test using GraphPad Prism 8 software.

[3] = tested on: 4T1 triple negative breast cancer; test: 4T1 breast cancer model, previous experiments with single agents; format: in vivo, mouse; settings: each drug as single agent
Procedure: […] mice challenged with syngeneic tumor cell line 4T1 triple negative breast cancer are used.
4T1 tumor model is considered a poorly immunogenic tumor (Demaria et al., Clin. Cancer Res. 11, 728-734, 2005).
ITF3756 is used at the same dosage used for the treatment of CT26 colon cancer, namely 50 mg/kg (mpk) TID as single agent and in combination with anti CTLA-4 antibody. The latter is administered at 3 mpk 3 times a week on alternate days.
Tumor growth is induced after subcutaneous injection of cell line and mice are monitored for at least three weeks post-injection.

[4] = Mean level in 24 hours after the efficacious schedule in the mouse; format: in vivo; settings: administration schedule that had shown efficacy, used as target for projected doses
Procedure: The human doses for ITF3756 were predicted using a physiologically based pharmacokinetic (PBPK) model, through the use of the software GastroPlus™ (Simulation Plus, Lancaster, CA). The target Caverage for projected doses was 200 ng/mL, mean level in 24 hours found after the administration schedule that had shown efficacy in the mouse.

[5] = tested on: PD-L1; test: Cytokine-induced PD-L1 expression in human monocytes stimulated in vitro; format: cell-based
[6] = tested on: female NOD mice; test: Diabetes induction in female NOD mice (glycemia); format: in vivo; settings: day 0-21, ITF3756 50 mg/kg os 3x/day, antibodies 500 μg (d0) + 250 μg/mouse ip, diabetes = glucose >250 mg/dL two consecutive days
Procedure: NOD mice spontaneously developed diabetes and they represent a widely accepted spontaneous model of Type 1 diabetes mellitus (Pearson et al., 2016, Journal of Autoimmunity 66, 76-88).
ITF3756 was synthetized by the Medicinal Chemistry Dept. of Italfarmaco SpA. ITF3756, batch 9, as powder was solubilized in DMSO and stored at −20° C.
Antibody treatment was according to Ansari (Ansari et al., 2003, The Journal of experimental medicine 1 98, 63-69)
Glycemia was evaluated in all mice for 3 weeks from day 0 (start treatment) until day 21 (end of study). Blood glucose levels were measured by glucometer One Touch® Verio. Blood samples were drawn from the tail vein by a prick with a needle. A drop of blood was inserted in a test strip and glucometer automatically calculated the glucose level. Results were shown in the display of the instrument. The instrument measures from 20 to 600 mg/dL. Results below 20 or above 600 mg/dL are visualized by the instrument as “below 20” or “above 600”.
Diabetes was defined by blood glucose reading of >250 mg/dL for two consecutive days.
Mice were monitored for 3 weeks; during this time, body weight was measured 7 times.

With `O=C(NO)c1ccc(Cn2nnnc2-c2cccs2)cc1` [ITF3756, N-hydroxy-4-((5-(thiophen-2-yl)-1H-tetrazol-1-yl)methyl)benzamide] as the molecule, how does the PD-L1 expression [1] read?
The PD-L1 expression was “decreased”.

What about the “Statistical significance vs Control group on day 10” value ([2]; ITF3756 25 mg/Kg) of the same molecule?
Its value is “n.s”.

And the “Statistical significance vs Control group on day 12” value ([2]; ITF3756 25 mg/Kg)?
The value was “n.s”.

What about the “Statistical significance vs Control group on day 14” value ([2]; ITF3756 25 mg/Kg) of the same molecule?
The value was “n.s”.

What about the “Statistical significance vs Control group on day 17” value ([2]; ITF3756 25 mg/Kg) of the same molecule?
Its value is “n.s”.

What about the “Statistical significance vs Control group on day 19” value ([2]; ITF3756 25 mg/Kg) of the same molecule?
Its value is “n.s”.

What about the “Statistical significance vs Control group on day 21” value ([2]; ITF3756 25 mg/Kg) of the same molecule?
Its value is “n.s”.

And the “Statistical significance vs Control group on day 24” value ([2]; ITF3756 25 mg/Kg)?
Its value is “n.s”.

What about the “Statistical significance vs Control group on day 10” value ([2]; ITF3756 50 mg/Kg) of the same molecule?
Its value is “n.s”.

And the “Statistical significance vs Control group on day 12” value ([2]; ITF3756 50 mg/Kg)?
Its value is “n.s”.

What about the “Statistical significance vs Control group on day 14” value ([2]; ITF3756 50 mg/Kg) of the same molecule?
The value was “n.s”.

And the “Statistical significance vs Control group on day 17” value ([2]; ITF3756 50 mg/Kg)?
The value was “n.s”.

What about the “Statistical significance vs Control group on day 19” value ([2]; ITF3756 50 mg/Kg) of the same molecule?
The value was “n.s”.

And the “Statistical significance vs Control group on day 21” value ([2]; ITF3756 50 mg/Kg)?
Its value is “* (p < 0.05)”.

And the “Statistical significance vs Control group on day 24” value ([2]; ITF3756 50 mg/Kg)?
Its value is “n.s”.

And the “Statistical significance vs Control group on day 10” value ([2]; ITF3756 50 mg/Kg x3)?
The value was “n.s”.

And the “Statistical significance vs Control group on day 12” value ([2]; ITF3756 50 mg/Kg x3)?
Its value is “n.s”.

And the “Statistical significance vs Control group on day 14” value ([2]; ITF3756 50 mg/Kg x3)?
Its value is “n.s”.

And the “Statistical significance vs Control group on day 17” value ([2]; ITF3756 50 mg/Kg x3)?
Its value is “n.s”.

What about the “Statistical significance vs Control group on day 19” value ([2]; ITF3756 50 mg/Kg x3) of the same molecule?
The value was “* (p < 0.05)”.

And the “Statistical significance vs Control group on day 21” value ([2]; ITF3756 50 mg/Kg x3)?
Its value is “** (p < 0.01)”.

What about the “Statistical significance vs Control group on day 24” value ([2]; ITF3756 50 mg/Kg x3) of the same molecule?
Its value is “** (p < 0.01)”.

What about the “inhibition of tumor growth” value ([2]; ITF3756 25 mg/Kg orally once a day, day 24) of the same molecule?
The value was 7%.

And the tumor weight ([2]; ITF3756 25 mg/Kg orally once a day, day 24, control 1.89 g)?
The tumor weight was 1.76 g.

And the “inhibition of tumor growth” value ([2]; ITF3756 25 mg/Kg orally once a day, entire experimental period)?
The value was “did not show a significant inhibition of tumor growth”.

What about the “inhibition of tumor growth” value ([2]; ITF3756 50 mg/Kg orally 3 times a day, day 24) of the same molecule?
Its value is 30%.

And the tumor weight ([2]; ITF3756 50 mg/Kg orally 3 times a day, day 24, control 1.89 g)?
Its tumor weight is 1.32 g.

What about the “inhibition of tumor growth” value ([2]; ITF3756 50 mg/Kg orally once a day, day 21) of the same molecule?
Its value is 34%.

What about the tumor weight ([2]; ITF3756 50 mg/Kg orally once a day, day 21, control 1.34 g) of the same molecule?
Its tumor weight is 0.88 g.

And the “inhibition of tumor growth” value ([2]; ITF3756 50 mg/Kg orally once a day, day 24)?
The value was 9%.

And the tumor weight ([2]; ITF3756 50 mg/Kg orally once a day, day 24, control 1.89 g)?
The tumor weight was 1.72 g.

And the “average reduction of tumor growth” value [3]?
The value was “approximately 40%”.

And the “Caverage, mean level in 24 hours” value [4]?
The value was 200 ng/mL.

And the “cytokine-induced expression of PD-L1” value [5]?
Its value is “decreases”.

And the induction of diabetes [6]?
The induction of diabetes was “did not accelerates the induction of autoimmune diabetes”.
